Experimental findings from patent publication US8293782B2, “Compound, probe containing the novel compound, and fluorescence-imaging contrast agent containing the novel compound or the probe” (Canon Kabushiki Kaisha, priority 2009, dated 2012) are described below.

The data set in a line: Fading evaluation in fetal bovine serum under interior light (680 LUX). Format: physicochemical. Particulars: 5 μM in FBS, absorbance at maximum absorption wavelength after 24 hours. Here is the method: The ordinate of FIG. 10 indicates log(At/A0) where A0 and At respectively represent absorbance at the maximum absorption wavelength after the lapse of 0 and t hours from the irradiation of the interior light. The fading rate in Table 1 is expressed by (A0-A24)/A0, that is, variation in absorbance at the maximum absorption wavelength after the lapse of 24 hours.

For Alexa Fluor (trademark) 750 [Reagent 1], the “Fading rate (A0-A24)/A0” value worked out at 4.5%.
